Results as given in patent US20230114728A1 (Venatorx Pharmaceuticals, Inc., priority 2019, published 2023).
≈ marks a conversion by molar mass, not a printed value.

What was measured:
N. gonorrhoeae WHO G = assay: Liquid broth MIC in Fastidious broth; assay type: cell-based; settings: Neisseria gonorrhoeae; N. gonorrhoeae strain WHO G; Fastidious broth; read-out: Minimum Inhibitory Concentration, N. gonorrhoeae WHO G
In short: (§1)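 Colonies were swabbed from chocolate agar after 24 h growth and standardised by optical density at 600 nm. Compounds were serially diluted twofold in Fastidious broth, and bacteria added to give 5×10^5 CFU/mL. After about 24 h at 36 °C in 5% CO2, the lowest concentration allowing under 10% growth was taken as MIC.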

N. gonorrhoeae WHO Z = assay: Liquid broth MIC in Fastidious broth; assay type: cell-based; settings: Neisseria gonorrhoeae, read-out: Minimum Inhibitory Concentration, N. gonorrhoeae WHO Z
In short: (§2)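 Broth microdilution in Fastidious broth with 2-fold compound series; inoculum from 24 h chocolate agar colonies, 5×10^5 CFU/mL start. Incubated ~24 hours at 36° C, 5% CO2. MIC read visually as lowest concentration giving <10% growth versus full-growth wells; strains carry mosaic PBP2.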

[1] = test system: N. gonorrhoeae ATCC 49226; assay: Liquid broth MIC in Fastidious broth; assay type: cell-based; settings: Neisseria gonorrhoeae, ATCC49226; N. gonorrhoeae strain ATCC 49226; Fastidious broth; read-out: Minimum Inhibitory Concentration, N. gonorrhoeae ATCC 49226
In short: as §1

N. gonorrhoeae WHO K = assay: Liquid broth MIC in Fastidious broth; assay type: cell-based; settings: Neisseria gonorrhoeae, read-out: Minimum Inhibitory Concentration, N. gonorrhoeae WHO K
In short: as §2

N. gonorrhoeae WHO L = assay: Liquid broth MIC in Fastidious broth; assay type: cell-based; settings: Neisseria gonorrhoeae; N. gonorrhoeae strain WHO L; Fastidious broth; read-out: Minimum Inhibitory Concentration, N. gonorrhoeae WHO L
In short: as §1

N. gonorrhoeae H041 = assay: Liquid broth MIC in Fastidious broth; assay type: cell-based; settings: Neisseria gonorrhoeae, H041, read-out: Minimum Inhibitory Concentration, N. gonorrhoeae H041
In short: as §2

N. gonorrhoeae FA1090 = assay: Liquid broth MIC in Fastidious broth; assay type: cell-based; settings: Neisseria gonorrhoeae; N. gonorrhoeae strain FA1090; Fastidious broth; read-out: Minimum Inhibitory Concentration, N. gonorrhoeae FA1090
In short: as §1

N. gonorrhoeae WHO Q = assay: Liquid broth MIC in Fastidious broth; assay type: cell-based; settings: Neisseria gonorrhoeae, read-out: Minimum Inhibitory Concentration, N. gonorrhoeae WHO Q
In short: as §2

E. coli K12 PBP3 = target: T1, E. coli K12 PBP3 (Escherichia coli, UniProt P0AD68); assay: biochemical; assay type: binding
T1 construct: made in house
In short: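 A. baumannii PBP2 (2.5 μM) and PBP3 (0.2 μM) were run in 25 mM Tris pH 8.0 buffer with Tween 20; E. coli PBP3 (1.5 μM) and N. gonorrhoeae PBP2 ([…]) in 50 mM Hepes pH 8.0 buffer.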

T1 sequence (P0AD68 1-577): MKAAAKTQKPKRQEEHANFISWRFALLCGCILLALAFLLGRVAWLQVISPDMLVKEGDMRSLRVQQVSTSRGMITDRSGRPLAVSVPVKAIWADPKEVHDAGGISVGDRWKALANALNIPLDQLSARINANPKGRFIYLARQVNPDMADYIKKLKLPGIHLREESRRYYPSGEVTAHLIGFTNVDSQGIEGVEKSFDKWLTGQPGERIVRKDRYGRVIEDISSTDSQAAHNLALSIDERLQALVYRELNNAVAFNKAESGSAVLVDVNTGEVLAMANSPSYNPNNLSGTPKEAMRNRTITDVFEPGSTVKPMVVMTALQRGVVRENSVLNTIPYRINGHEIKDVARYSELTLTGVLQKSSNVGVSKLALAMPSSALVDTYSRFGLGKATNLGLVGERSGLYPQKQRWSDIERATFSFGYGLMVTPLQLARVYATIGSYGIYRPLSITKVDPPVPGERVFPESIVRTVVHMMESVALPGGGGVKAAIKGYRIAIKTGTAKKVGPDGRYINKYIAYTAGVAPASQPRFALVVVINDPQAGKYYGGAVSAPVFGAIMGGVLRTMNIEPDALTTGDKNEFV

Structure (SMILES): CCN1CCN(C(=O)NC(C(=O)N[C@H]2Cc3cccc(C(=O)O)c3OB2O)c2cncc(O)c2)C(=O)C1=O (stereo partly drawn) [Example 112, (3R)-3-(2-(4-ethyl-2,3-dioxopiperazine-1-carboxamido)-2-(5-hydroxypyridin-3-yl)acetamido)-2-hydroxy-3,4-dihydro-2H-benzo[e][1,2]oxaborinine-8-carboxylic acid]
- MIC (N. gonorrhoeae WHO G): 4 to 8 µg/mL (≈ 7.61 to 15.2 µM)
- MIC (N. gonorrhoeae WHO Z): 16 to 32 µg/mL (≈ 30.5 to 60.9 µM)
- MIC [1]: 4 to 8 µg/mL (≈ 7.61 to 15.2 µM)
- MIC (N. gonorrhoeae WHO K): > 64 µg/mL
- MIC (N. gonorrhoeae WHO L): > 64 µg/mL
- MIC (N. gonorrhoeae H041): > 64 µg/mL
- MIC (N. gonorrhoeae FA1090): 1 to 2 µg/mL (≈ 1.9 to 3.81 µM)
- MIC (N. gonorrhoeae WHO Q): 16 to 32 µg/mL (≈ 30.5 to 60.9 µM)
- EC50 (E. coli K12 PBP3): 30 to 500 µM

Structure (SMILES): NC1(CN2CCN(C(=O)N[C@@H](C(=O)N[C@H]3Cc4ccc(F)c(C(=O)O)c4OB3O)c3c(F)cc(O)c(O)c3Cl)C(=O)C2=O)CC1 (single isomer, unassigned) [Example 134]
- MIC (N. gonorrhoeae WHO G): > 64 µg/mL
- MIC (N. gonorrhoeae WHO Z): > 64 µg/mL
- MIC [1]: > 64 µg/mL
- MIC (N. gonorrhoeae WHO K): > 64 µg/mL
- MIC (N. gonorrhoeae WHO L): > 64 µg/mL
- MIC (N. gonorrhoeae H041): > 64 µg/mL
- MIC (N. gonorrhoeae FA1090): 16 to 32 µg/mL (≈ 24.5 to 49.1 µM)
- MIC (N. gonorrhoeae WHO Q): > 64 µg/mL
- EC50 (E. coli K12 PBP3): 30 to 500 µM

Structure (SMILES): CCN1CCN(C(=O)N[C@H](C(=O)N[C@H]2Cc3cccc(C(=O)O)c3OB2O)c2ccc(C(=O)O)c(F)c2)C(=O)C1=O (single isomer, unassigned) [Example 147]
- MIC (N. gonorrhoeae WHO G): 0.25 to 0.5 µg/mL (≈ 0.438 to 0.877 µM)
- MIC (N. gonorrhoeae WHO Z): 0.25 to 0.5 µg/mL (≈ 0.438 to 0.877 µM)
- MIC [1]: 1 to 2 µg/mL (≈ 1.75 to 3.51 µM)
- MIC (N. gonorrhoeae WHO K): 0.25 to 0.5 µg/mL (≈ 0.438 to 0.877 µM)
- MIC (N. gonorrhoeae WHO L): 4 to 8 µg/mL (≈ 7.01 to 14 µM)
- MIC (N. gonorrhoeae H041): 1 to 2 µg/mL (≈ 1.75 to 3.51 µM)
- MIC (N. gonorrhoeae FA1090): < 0.125 µg/mL
- MIC (N. gonorrhoeae WHO Q): 0.25 to 0.5 µg/mL (≈ 0.438 to 0.877 µM)
- EC50 (E. coli K12 PBP3): < 30 µM

Structure (SMILES): NCCCN1CCN(C(=O)N[C@@H](C(=O)N[C@H]2Cc3cccc(C(=O)O)c3OB2O)c2cccc(NS(N)(=O)=O)c2)C(=O)C1=O [Example 117, (R)-3-((R)-2-(4-(3-aminopropyl)-2,3-dioxopiperazine-1-carboxamido)-2-(3-(sulfamoylamino)phenyl)acetamido)-2-hydroxy-3,4-dihydro-2H-benzo[e][1,2]oxaborinine-8-carboxylic acid]
- MIC (N. gonorrhoeae WHO G): 16 to 32 µg/mL (≈ 25.3 to 50.7 µM)
- MIC (N. gonorrhoeae WHO Z): > 64 µg/mL
- MIC [1]: > 64 µg/mL
- MIC (N. gonorrhoeae WHO K): > 64 µg/mL
- MIC (N. gonorrhoeae WHO L): > 64 µg/mL
- MIC (N. gonorrhoeae H041): > 64 µg/mL
- MIC (N. gonorrhoeae FA1090): 4 to 8 µg/mL (≈ 6.33 to 12.7 µM)
- MIC (N. gonorrhoeae WHO Q): > 64 µg/mL
- EC50 (E. coli K12 PBP3): 30 to 500 µM

Structure (SMILES): CCN1CCN(C(=O)NC(C(=O)N[C@H]2Cc3cccc(C(=O)O)c3OB2O)c2cc(F)c(C(=O)O)c(F)c2)C(=O)C1=O (stereo partly drawn) [Example 141, (3R)-3-(2-(4-carboxy-3,5-difluorophenyl)-2-(4-ethyl-2,3-dioxopiperazine-1-carboxamido)acetamido)-2-hydroxy-3,4-dihydro-2H-benzo[e][1,2]oxaborinine-8-carboxylic acid]
- MIC (N. gonorrhoeae WHO G): 0.25 to 0.5 µg/mL (≈ 0.425 to 0.85 µM)
- MIC (N. gonorrhoeae WHO Z): 1 to 2 µg/mL (≈ 1.7 to 3.4 µM)
- MIC [1]: 1 to 2 µg/mL (≈ 1.7 to 3.4 µM)
- MIC (N. gonorrhoeae WHO K): 1 to 2 µg/mL (≈ 1.7 to 3.4 µM)
- MIC (N. gonorrhoeae WHO L): 4 to 8 µg/mL (≈ 6.8 to 13.6 µM)
- MIC (N. gonorrhoeae H041): 4 to 8 µg/mL (≈ 6.8 to 13.6 µM)
- MIC (N. gonorrhoeae FA1090): < 0.125 µg/mL
- MIC (N. gonorrhoeae WHO Q): 1 to 2 µg/mL (≈ 1.7 to 3.4 µM)
- EC50 (E. coli K12 PBP3): < 30 µM

Structure (SMILES): NCCN1CCN(C(=O)N[C@@H](C(=O)N[C@H]2Cc3ccc(F)c(C(=O)O)c3OB2O)c2cc(F)c(O)c(O)c2Cl)C(=O)C1=O (single isomer, unassigned) [Example 179]
- MIC (N. gonorrhoeae WHO G): 16 to 32 µg/mL (≈ 25.6 to 51.1 µM)
- MIC (N. gonorrhoeae WHO Z): > 64 µg/mL
- MIC [1]: > 64 µg/mL
- MIC (N. gonorrhoeae WHO K): > 64 µg/mL
- MIC (N. gonorrhoeae WHO L): > 64 µg/mL
- MIC (N. gonorrhoeae H041): > 64 µg/mL
- MIC (N. gonorrhoeae FA1090): 16 to 32 µg/mL (≈ 25.6 to 51.1 µM)
- MIC (N. gonorrhoeae WHO Q): > 64 µg/mL
- EC50 (E. coli K12 PBP3): < 30 µM

Structure (SMILES): CCN1CCN(C(=O)NC(C(=O)N[C@H]2Cc3ccc(F)c(C(=O)O)c3OB2O)c2c(F)cc(O)cc2F)C(=O)C1=O (stereo partly drawn) [Example 130, (3R)-3-(2-(2,6-difluoro-4-hydroxyphenyl)-2-(4-ethyl-2,3-dioxopiperazine-1-carboxamido)acetamido)-7-fluoro-2-hydroxy-3,4-dihydro-2H-benzo[e][1,2]oxaborinine-8-carboxylic acid]
- MIC (N. gonorrhoeae WHO G): 4 to 8 µg/mL (≈ 6.92 to 13.8 µM)
- MIC (N. gonorrhoeae WHO Z): 4 to 8 µg/mL (≈ 6.92 to 13.8 µM)
- MIC [1]: 4 to 8 µg/mL (≈ 6.92 to 13.8 µM)
- MIC (N. gonorrhoeae WHO K): 16 to 32 µg/mL (≈ 27.7 to 55.3 µM)
- MIC (N. gonorrhoeae WHO L): > 64 µg/mL
- MIC (N. gonorrhoeae H041): 16 to 32 µg/mL (≈ 27.7 to 55.3 µM)
- MIC (N. gonorrhoeae FA1090): 1 to 2 µg/mL (≈ 1.73 to 3.46 µM)
- MIC (N. gonorrhoeae WHO Q): 16 to 32 µg/mL (≈ 27.7 to 55.3 µM)
- EC50 (E. coli K12 PBP3): < 30 µM
